Experiments:
[1] = tested on: SOD1 G93A mouse model of ALS; experiment: Disease onset by neurological score in SOD1 G93A mice; assay type: in vivo; details: treated from d50 or from d80, differentiated by gender
Method: Neurological Score. Neurological scores were assessed every three days for each mouse from 50 days of age. The neurological score employed a scale of 0 to 4 that had been developed in ALS mouse trials before. Score criteria used to assign each score level were: • 4 Full extension of hind legs away from lateral midline when mouse is suspended by its tail, and mouse can hold this for 2 seconds, suspended 2-3 times. • 3 Collapse or partial collapse of leg extension towards lateral midline (weakness) or trembling of hind legs during tail suspension. • 2 Toes curl under at least twice during walking of 10 cm, or any part of foot is dragging along cage bottom/table. • 1 Rigid paralysis or minimal joint movement, foot not being used for forward motion*. * If score criterion 2 is reached, food pellets are left on bedding and water is additionally placed in a well on the bedding. • 0 Mouse cannot right itself within 30 seconds from either side.
Onset of disease is defined as reaching neurological score 3 (collapse or partial collapse of leg extension towards lateral midline (weakness) or trembling of hind legs during tail suspension).

[2] = tested on: SOD1 G93A mouse model of ALS; experiment: Rotarod test (motor coordination), time to failure of 180 s; assay type: in vivo
Excerpt: From a patient's point of view overall survival is not the only parameter of a successful therapy. Many recent therapeutic studies in humans rather evaluate an increased time with improved quality of life. An improved motor function could be one parameter that is relevant for the quality of daily life and therefore the inventors chose two different tests to monitor motor function in the present animal model. The rotarod test evaluates fine motor coordination and is a very sensitive test for the ability to move on an unstable underground. Evaluating motor coordination by subjecting the animals to the rotarod test, the presymptomatic female treatment group failed later in the task to reach a total running time of 180 s (122.5 days) in comparison to the vehicle-treated group (114.2 days).

[3] = tested on: neuromuscular junctions of SOD1 G93A mice; experiment: NMJ integrity of gastrocnemius muscle; assay type: in vivo, mouse; details: Fasudil vs control treated animals
[4] = tested on: SOD1 G93A mouse model of ALS; experiment: Hanging wire test (crude muscular strength), time to failure of 180 s; assay type: in vivo; details: either treatment groups of both sexes
Excerpt: The hanging wire test evaluates crude grip strength of the upper extremities.
The hanging wire performance evaluating crude muscular strength in the task to reach a total hanging wire time of 180 s was not different in either treatment groups of both sexes (FIG. 6). Wildtype animals always reached the maximum time of 180 s (data not shown).

[5] = tested on: SOD1 wt and SOD1G93A microglia; experiment: LPS-triggered cytokine/chemokine release of primary microglia (ELISA); assay type: cell-based, mouse; details: 18 hours; for proinflammatory cytokine release: SOD1 wt and SOD1G93A microglia
Method: Primary cell cultures were prepared from whole brains of newborn (PO) mice and cultured in complete Dulbecco's modified Eagle's medium (DMEM, Invitrogen/Gibco, Karlsruhe, Germany), supplemented with 10% fetal calf serum (FCS, Invitrogen/Gibco), 100 U/ml penicillin and 100 μg/ml streptomycin (both Biochrom, Berlin, Germany) as previously described (Regen, et al. (2011) Brain, Behavior, and Immunity 25(5): 957-970). In brief, brains of newborn B6/SJL SOD1G93A and from B6/SJL SOD1wt, respectively, were liberated from meninges and blood vessels, washed with Hank's balanced salt solution (HBSS; Biochrom) and incubated with 2.5% trypsin (Biochrom) for 10 min at 37° C. The enzymatic reaction was stopped by addition of complete medium, supplemented with DNAse [5 mg/ml] (Worthington Biochemicals, Lakewood, N.J., USA). Remaining cell clusters were mechanically separated and the suspension was centrifuged at 900 rpm at 4° C. for 10 min. The supernatant was removed, cells were resuspended in fresh complete medium and seeded in 75 cm2, poly-L-lysine (PLL)-coated culture flasks. Immediately before being used, flasks were incubated with 100 μg/ml PLL (Invitrogen/Gibco) for 30 min at RT and excess of PLL was washed off by three rinses with sterile ddH2O. Subsequently, cultures were maintained in a humidified atmosphere with 5% CO2 at 37° C. On the next day, primary mixed-glial cultures were washed three times (PBS, Invitrogen/Gibco) and received fresh complete medium, the latter being repeated the following day. One week after seeding, microglial proliferation was stimulated by adding complete medium supplemented with 30% of L929-conditioned cell culture supernatant (see section “L929 Mouse Fibroblast Cultures” below). After another two days, microglial cells were harvested by shaking them off the astrocytic layer, taking advantage of their different adhesion properties. After washing with complete medium and counting, cells were plated in 96-well plates at a density of 15,000 cells/well for ELISA or were plated in 24-well plates at a density of 50,000 cells/well on PLL-coated coverslips for later immunocytochemical processing.
Primary cultures underwent five different general treatments: (a) Cells were left untreated in medium serving as controls. (b) Cells were stimulated with the TLR4 ligand LPS (E. coli R515; Axxora/Appotech TLR ligand set 1, APO.54N-018) for 18 hours at a final concentration of 10 ng/ml. (c) Cells underwent a treatment with Fasudil at 2 μM, 10 μM or 50 μM, respectively, for 18 hours. (d) Cells were stimulated with LPS, as described above, in the presence of various concentrations of Fasudil. (e) Cells were preincubated for 1 h, 4 h or 12 h, respectively with Fasudil at 50 μM, prior to a LPS challenge in the continued presence of Fasudil at 50 μM. Stimulation experiments were routinely carried out twice.
Following microglial stimulations and treatments, culture supernatants were collected and stored at −20° C. until assayed. Supernatants were analyzed for the release of cyto- and chemokines by commercial enzyme-linked immunosorbent assay (ELISA) test systems. Levels of IL-6, CCL2 (monocyte chemoattractant protein, MCP-1), CCL3 (macrophage inflammatory protein, MIP-1α) and CCL5 (regulated upon activation normal T-cell expressed and presumably secreted, RANTES) and CXCL1 (Chemokine (C-X-C motif) ligand 1) were determined using DuoSet ELISA Development Kits (R&D Systems). TNFα (tumor necrosis factor α) was determined using MAXTM ELISA kit (Biolegend). Absorbance was measured at 450 nm (with a 540 nm reference wavelength) using a microplate reader (Bio-Rad).

[6] = tested on: wildtype primary motoneurons in astrocyte/motoneuron co-culture; experiment: Kainic acid toxicity in astrocyte/motoneuron co-culture; assay type: cell-based; details: KA exposure 24 h, Fasudil 4 or 20 μM, co-culture with astrocytes
Excerpt: In order to compare the Fasudil neuroprotective effect on motoneurons in vivo with an corresponding in vitro paradigm the inventors subjected wildtype primary motoneurons cultured in a astrocyte/motoneuron co-culture to kainic acid (KA) toxicity.

[7] = LPS 10 ng/ml + Fasudil 50 μM, both genotypes

## O=S(=O)(c1cccc2cnccc12)N1CCCNCC1 [Fasudil, 1-(5-isoquinolinesulfonyl)homopiperazine]
[1]
  onset of disease (neurological score 3): no statistically significant difference
[2]; male, presymptomatic Fas30
  rotarod performance: slight non-significant trend to improved performance
[2]; presymptomatic female treatment group, vehicle 114.2 days
  time to failure to reach 180 s rotarod running time: 122.5 days
[2]; symptomatic treatment
  rotarod performance: not able to improve rotarod performances
[3]
  sciatic nerve axonal pathology and NMJ integrity of gastrocnemius muscle: no significant differences
[4]
  hanging wire performance (180 s): not different
[5]; LPS 10 ng/ml + Fasudil 2 μM
  proinflammatory cytokine release: not efficient in significantly reducing
[5]; LPS 10 ng/ml + Fasudil 10 μM
  proinflammatory cytokine release: not efficient in significantly reducing
[5]; [7]
  release of CCL3: markedly reduced
  release of CXCL1: markedly reduced
  release of IL-6: markedly reduced
  release of RANTES: markedly reduced
  release of TNFα: markedly reduced
[5]; LPS 10 ng/ml + Fasudil 50 μM, relative to LPS alone (100%), slightly increased/unaffected
  change of CCL2 release: +8.9%
[6]
  survival of KA exposed motoneurons: protected motoneurons from KA induced cell death
